Some test systems named below: A549 NSCLC; CCRF-CEM leukemia; HCT-15 colon; RPMI-8226 leukemia; SK-OV-3 ovarian; SN12C renal; TK-10 renal; U251 CNS; UO-31 renal.
Common to all, as to assay: NCI tumour cell line growth inhibition, 48 h

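These data come from cells grown in 96-well plates and exposed to compound for 48 hours at five concentrations. Here, GI50 denotes the concentration required for 50% inhibition of growth. Definition used: TGI = concentration required for complete inhibition of growth.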

Among the data in PubChem BioAssay (NCI) are TGI and GI50 values, retold here.

For the compound `CCCN(CCCCC(NC(C)=O)C(=O)NCc1ccccc1)C(=O)N(C)N=O` (stereo not given), the TGI with A549 NSCLC, in the test with CCRF-CEM leukemia, with HCT-15 colon, in the test with RPMI-8226 leukemia, with SK-OV-3 ovarian and in the test with SN12C renal was over 100 µM in each case. For the same compound, the TGI with TK-10 renal, with U251 CNS and in the test with UO-31 renal was over 100 µM in each case.
For the compound `COc1ccc(C(=O)C(c2ccc(OC)cc2)C2(O)C(=O)Nc3ccccc32)cc1` (stereo not given), the TGI with A549 NSCLC, in the test on CCRF-CEM leukemia, in the test with HCT-15 colon, with RPMI-8226 leukemia, in the test on SK-OV-3 ovarian and with SN12C renal was over 100 µM each time. Further, the TGI in the test on TK-10 renal, with U251 CNS and with UO-31 renal was over 100 µM throughout.
As to `O=C(O)C(CP(=O)(O)O)=C(Cl)Cl`, the TGI in the test with A549 NSCLC, with CCRF-CEM leukemia, with HCT-15 colon, in the test on RPMI-8226 leukemia, with SK-OV-3 ovarian and in the test with SN12C renal was over 100 µM each time. In addition, the TGI with TK-10 renal, in the test with U251 CNS and in the test on UO-31 renal was over 100 µM throughout.
For `COC(=O)C1=C(O)c2cc(OC)c(OC)c(OC)c2[C@H](c2cc(OC)c(OC)c(OC)c2)C1C(=O)OC` (stereo not given in full), the TGI in the test on A549 NSCLC was over 100 µM; in the test on CCRF-CEM leukemia, over 100 µM; in the test on HCT-15 colon it was over 100 µM; in the test with RPMI-8226 leukemia, 87.1 µM; in the test on SK-OV-3 ovarian, over 100 µM; with SN12C renal, over 100 µM. In addition, the TGI with TK-10 renal, with U251 CNS and with UO-31 renal was over 100 µM each time.
Turning to `Cc1c(Cl)ccc2c1NC(=O)C2(O)C(C(=O)c1ccccc1)c1ccccc1` (stereo not given), the TGI in the test on A549 NSCLC was over 100 µM; in the test with CCRF-CEM leukemia it was 73.8 µM; in the test on HCT-15 colon, over 100 µM; in the test on RPMI-8226 leukemia, 69 µM; in the test with SK-OV-3 ovarian, over 100 µM; in the test on SN12C renal, over 100 µM. The TGI with TK-10 renal, with U251 CNS and in the test on UO-31 renal was over 100 µM each time.
In the case of `O=S1c2ccccc2N=C(c2ccc3ccccc3c2)CC1C1=CC=CCC1` (stereo not given), the TGI worked out at 91.2 µM with A549 NSCLC; 23.6 µM in the test on CCRF-CEM leukemia; 35.7 µM with HCT-15 colon; 36.9 µM in the test on RPMI-8226 leukemia; 50.4 µM with SK-OV-3 ovarian; 36.9 µM in the test on SN12C renal. Moreover, the TGI in the test on TK-10 renal amounted to 51.7 µM; with UO-31 renal, 26.7 µM.
`COC(=O)/C=C1/CCC2[C@@H](C(=O)CC3[C@]2(C)CCC[C@@]3(C)C(=O)OC)C1C` (stereo not given in full): the TGI was determined as 37.7 µM in the test with A549 NSCLC; 17.6 µM in the test with CCRF-CEM leukemia; 35.9 µM in the test on HCT-15 colon; 14.4 µM with RPMI-8226 leukemia; 51.6 µM in the test on SK-OV-3 ovarian; 40.6 µM with SN12C renal. Moreover, the figures for the TGI with TK-10 renal, in the test on U251 CNS and with UO-31 renal were 36.1 µM, 29.5 µM and 37.5 µM, respectively.
With `CN(C)CCNC(=O)c1cc2ccccc2c2nc3ccccc3nc12`, the TGI was over 44.4 µM with A549 NSCLC; 3.24 µM in the test on HCT-15 colon; 3.42 µM with RPMI-8226 leukemia; over 31.6 µM in the test with SK-OV-3 ovarian; 3.89 µM in the test on SN12C renal; 7.17 µM in the test with TK-10 renal. In the test with U251 CNS, this compound came in with a TGI of 4.92 µM.
For `COc1cc(/C=C2\[C@H]3c4c(c(OC)c(C)c(OC)c4OC)C[C@@H](C(=O)N2Cc2ccccc2)N3C(=O)OCC(C)C)c(OC)c(C)c1OC`, the TGI in the test with A549 NSCLC, with CCRF-CEM leukemia, with HCT-15 colon, in the test on RPMI-8226 leukemia, with SK-OV-3 ovarian and in the test with SN12C renal was over 100 µM throughout. Besides, the TGI with TK-10 renal, with U251 CNS and in the test on UO-31 renal was over 100 µM each time.
In the case of `CCOC(C)C(/C=N/NC(N)=S)=NNC(N)=S` (stereo not given), the TGI with A549 NSCLC, with CCRF-CEM leukemia, in the test with HCT-15 colon, in the test on RPMI-8226 leukemia, in the test with SK-OV-3 ovarian and in the test with SN12C renal was over 100 µM each time. Moreover, the results for the TGI in the test on TK-10 renal, in the test with U251 CNS and in the test on UO-31 renal were over 100 µM, over 100 µM and over 77.2 µM, respectively.
Regarding `COc1cc(/C=C2/C(=O)N(C(=O)OC(C)C)C(Cc3cc(OC)c(OC)c(C)c3OC)C(=O)N2Cc2ccccc2)c(OC)c(C)c1OC` (stereo not given), the TGI with A549 NSCLC, in the test with CCRF-CEM leukemia, in the test on RPMI-8226 leukemia, with SK-OV-3 ovarian, in the test on SN12C renal and in the test on TK-10 renal was over 100 µM each time. The TGI in the test with U251 CNS and in the test on UO-31 renal was over 100 µM throughout.
For the compound `CC(=O)OC(/C=C1/C=CC(=O)O1)COC(=O)c1ccccc1` (stereo not given), the TGI with A549 NSCLC, in the test with CCRF-CEM leukemia, in the test with RPMI-8226 leukemia, with SK-OV-3 ovarian, in the test on SN12C renal and in the test on TK-10 renal was over 31.2 µM in each case. The TGI with U251 CNS and with UO-31 renal was over 31.2 µM each time.
Take `Cc1ccc(NC(=O)C(=O)C2C(=O)N(c3ccccc3)N=C2N)cc1C` (stereo not given): the TGI with A549 NSCLC, in the test on CCRF-CEM leukemia, in the test on HCT-15 colon, in the test on RPMI-8226 leukemia, with SK-OV-3 ovarian and with SN12C renal was over 100 µM each time. Besides, the TGI with TK-10 renal, with U251 CNS and in the test on UO-31 renal was over 100 µM each time.
With `CCOC(=O)/C(O)=C(/c1n[nH]c(=O)c2ccccc12)[N+](=O)[O-]`, the TGI in the test with A549 NSCLC, in the test on CCRF-CEM leukemia, in the test on HCT-15 colon, with RPMI-8226 leukemia, in the test on SK-OV-3 ovarian and in the test with SN12C renal was over 100 µM throughout. The TGI in the test with TK-10 renal, in the test on U251 CNS and with UO-31 renal was over 100 µM each time.
For the compound `Cc1ccc(NC(=O)CCC(CC(=O)C(C)(C)C)=NNC(=O)C(=O)NN)cc1C`, the TGI in the test on A549 NSCLC, with CCRF-CEM leukemia, in the test with HCT-15 colon, in the test on RPMI-8226 leukemia, with SK-OV-3 ovarian and in the test on SN12C renal was over 100 µM each time. Besides, the TGI in the test on TK-10 renal and in the test on UO-31 renal was over 100 µM in each case.
As to `O=c1/c(=C/c2cccc([N+](=O)[O-])c2)sc2nc3ccccc3n12`, the TGI in the test on CCRF-CEM leukemia, in the test on HCT-15 colon, with SK-OV-3 ovarian, in the test on SN12C renal, with TK-10 renal and in the test on UO-31 renal was over 100 µM throughout.
Consider `Cc1cc(NS(=O)(=O)c2ccc(N=Nc3cc(N=Nc4ccc(S(=O)(=O)Nc5cc(C)nc(C)n5)cc4)c4c(NC(=O)C(Cl)Cl)cccc4c3OC(=O)C(Cl)Cl)cc2)nc(C)n1` (tested in a mixture with another compound), for which the TGI in the test with A549 NSCLC was over 100 µM; in the test on HCT-15 colon, 31.7 µM; with SK-OV-3 ovarian, over 100 µM; in the test with SN12C renal, 37.8 µM; with TK-10 renal it was 88.1 µM; with U251 CNS, 32.8 µM. In the test with UO-31 renal, this compound registered a TGI of 37.4 µM.
Regarding `CS(=O)(=O)NNS(=O)(=O)c1cccc([N+](=O)[O-])c1`, the TGI in the test on A549 NSCLC, in the test on CCRF-CEM leukemia, with HCT-15 colon, in the test on RPMI-8226 leukemia, with SN12C renal and in the test with TK-10 renal was over 100 µM throughout. Further, the TGI in the test on U251 CNS and with UO-31 renal was over 100 µM throughout.
Turning to `CC1CC2(C)ON=C(c3ccccc3)N2c2ccccc2S1` (stereo not given), the GI50 was 34.3 µM in the test with A549 NSCLC; 28.1 µM in the test on CCRF-CEM leukemia; 44.6 µM in the test with HCT-15 colon; 20.4 µM in the test with RPMI-8226 leukemia; 9.55 µM in the test with SK-OV-3 ovarian; 18 µM in the test with SN12C renal. Besides, the GI50 is 34.9 µM in the test on U251 CNS and 28.1 µM in the test with UO-31 renal. Also, the TGI was found to be 77.6 µM in the test with CCRF-CEM leukemia, 69.2 µM with RPMI-8226 leukemia, 91.9 µM with SK-OV-3 ovarian and 34.2 µM with SN12C renal.
Regarding `CC(=O)[CH-]C(=O)c1ccccc1.CC(=O)[CH-]C(=O)c1ccccc1.CC[O-].CC[O-].[Zr+4]`, the GI50 is over 100 µM in the test with A549 NSCLC; 69.7 µM with CCRF-CEM leukemia; over 100 µM with HCT-15 colon; over 100 µM in the test with RPMI-8226 leukemia; over 100 µM in the test on SK-OV-3 ovarian; over 100 µM with SN12C renal. Moreover, the GI50 in the test on U251 CNS and with UO-31 renal was over 100 µM each time. Further, the TGI in the test on A549 NSCLC, with CCRF-CEM leukemia, with HCT-15 colon, in the test with RPMI-8226 leukemia, in the test with SK-OV-3 ovarian and in the test with SN12C renal was over 100 µM throughout. The TGI in the test on U251 CNS and with UO-31 renal was over 100 µM each time.
In the case of `COc1ccc(C(=O)OCC2OC(n3cnc4c(=S)nc[nH]c43)C(OC(=O)c3ccc(OC)cc3)C2OC(=O)c2ccc(OC)cc2)cc1` (stereo not given), the TGI with A549 NSCLC is over 100 µM; in the test with CCRF-CEM leukemia, 93.3 µM; in the test on HCT-15 colon it was over 100 µM; with RPMI-8226 leukemia, over 100 µM; with TK-10 renal, over 100 µM; in the test on U251 CNS, over 100 µM. The compound also showed a TGI in the test on UO-31 renal of over 100 µM.
